Like-named read-outs stand apart in the source and are kept apart here.
Columns and labels:
[1] = tested on: Key Grass and Sedge Weeds as well as Grass Crops; assay: Post-emergent Test II herbicidal activity (Table 6); assay type: in vivo; settings: post-emergence, 336 h; for pest or weed control at 70 g/ha: application rate 70 g ai/ha; for pest or weed control at 140 g/ha: application rate 140 g ai/ha
Method in brief: (§1)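 Test species were raised 7–21 d under greenhouse conditions until reaching the first or second true leaf, sprayed with formulated compound at 187 L/ha, and kept subirrigated to avoid wash-off. Fourteen days later, damage was rated visually on a 0–100% scale against untreated plants.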

[2] = tested on: Key Broadleaf Weed and Crop Species; assay: Post-emergent Test II herbicidal activity (Table 5); assay type: in vivo; settings: post-emergence, 336 h, post-emergent, 14 days after application; for pest or weed control at 70 g/ha: 70 g ai/ha; for pest or weed control at 140 g/ha: 140 g ai/ha
Method in brief: as §1

[3] = Triticum aestivum, TRZSS (wheat), read-out: Visual Growth Reduction (%) 14 Days After Application, TRZSS
[4] = CYPES: yellow nutsedge (Cyperus esculentus), read-out: Visual Growth Reduction (%) 14 Days After Application, CYPES
[5] = DIGSA: crabgrass (Digitaria sanguinalis), read-out: Visual Growth Reduction (%) 14 Days After Application, DIGSA
[6] = ECHCG: barnyardgrass (Echinochloa crus-galli), read-out: Visual Growth Reduction (%) 14 Days After Application, ECHCG
[7] = ORYSA: rice (Oryza sativa), read-out: Visual Growth Reduction (%) 14 Days After Application, ORYSA
[8] = SETFA: giant foxtail (Setaria faberi), read-out: Visual Growth Reduction (%) 14 Days After Application, SETFA
[9] = SORVU: grain sorghum (Sorghum vulgare), read-out: Visual Growth Reduction (%) 14 Days After Application, SORVU
[10] = ZEAMX: maize, corn (Zea mays), read-out: Visual Growth Reduction (%) 14 Days After Application, ZEAMX
[11] = ABUTH: velvetleaf (Abutilon theophrasti), read-out: Visual Growth Reduction (%) 14 Days After Application ABUTH
[12] = AMARE: redroot pigweed (Amaranthus retroflexus), read-out: Visual Growth Reduction (%) 14 Days After Application AMARE
[13] = BRSNN: oilseed-rape, canola (Brassica napus), read-out: Visual Growth Reduction (%) 14 Days After Application BRSNN
[14] = CHEAL: lambsquarters (Chenopodium album), read-out: Visual Growth Reduction (%) 14 Days After Application CHEAL
[15] = EPHHL: wild poinsettia (Euphorbia heterophylla), read-out: Visual Growth Reduction (%) 14 Days After Application EPHHL
[16] = HELAN: sunflower (Helianthus annuus), read-out: Visual Growth Reduction (%) 14 Days After Application HELAN
[17] = VIOTR: wild pansy (Viola tricolor), read-out: Visual Growth Reduction (%) 14 Days After Application VIOTR

COC(=O)c1nc(-c2ccc(C(N)=O)cc2)c(F)c(N)c1Cl [Compound 192]
0 to 29%: pest or weed control at 70 g/ha [1, 3] | pest or weed control at 140 g/ha [1, 3] | pest or weed control at 70 g/ha [1, 4] | pest or weed control at 140 g/ha [1, 4] | pest or weed control at 70 g/ha [1, 5] | pest or weed control at 140 g/ha [1, 5] | pest or weed control at 70 g/ha [1, 6] | pest or weed control at 140 g/ha [1, 6] | pest or weed control at 70 g/ha [1, 7] | pest or weed control at 140 g/ha [1, 7] | pest or weed control at 70 g/ha [1, 8] | pest or weed control at 140 g/ha [1, 8] | pest or weed control at 70 g/ha [1, 9] | pest or weed control at 140 g/ha [1, 9] | pest or weed control at 70 g/ha [1, 10] | pest or weed control at 140 g/ha [1, 10] | pest or weed control at 70 g/ha [2, 11] | pest or weed control at 140 g/ha [2, 11] | pest or weed control at 70 g/ha [2, 12] | pest or weed control at 140 g/ha [2, 12] | pest or weed control at 70 g/ha [2, 13] | pest or weed control at 140 g/ha [2, 13] | pest or weed control at 70 g/ha [2, 14] | pest or weed control at 140 g/ha [2, 14] | pest or weed control at 70 g/ha [2, 15] | pest or weed control at 140 g/ha [2, 15] | pest or weed control at 70 g/ha [2, 16] | pest or weed control at 140 g/ha [2, 16] | pest or weed control at 70 g/ha [2, 17] | pest or weed control at 140 g/ha [2, 17]
